Source: patent US20070292351A1, “Assay for efficacy of histone deacetylase inhibitors” (Methylgene, Inc., priority 2006, published 2007)

What was measured:
[1] = test system: H4 acetylation in human H460 tumors; assay: H4Ac immunoblot analysis of H460 tumors in nude mice; assay type: in vivo, nude mice (Balb/c); conditions: 100 mg/kg oral, immunoblot normalized to total histones (FIG. 5B)
Protocol: FIG. 5 Induction of MT3 and p21 in implanted human NSCLC H460 tumors in vivo in nude mice. Nude mice (Balb/c) bearing human H460 tumors were treated with 100 mg/kg MGCD0103 or 0.5% HEC (Vehicle) by oral administration. After 6 h or 24 h, three mice from each group were sacrificed, their tumors harvested and analyzed. Panel A: p21 and MT3 RNA levels quantified by conventional semi-quantitative PCR, normalized to β-actin. Panel B: H4Ac level detected by immunoblot analysis, normalized to total histones.
Human non-small cell lung carcinoma NSCLC-H460 cells (2 million) were injected subcutaneously in the animal flank and allowed to form solid tumors. Tumor fragments were passaged in animals for a minimum of three times before their use. Tumor fragments (about 30 mg) were implanted subcutaneously through a small surgical incision under general anesthesia to Balb/cA female nude mice (6-8 weeks old). Recipient animals were treated with either vehicle (0.1 N HCl) or MGCD0103 (2HBr salt, in 0.1 N HCl) 100 mg/kg orally. Tumors were harvested after one dose of either 6 hour or 24 hours post administration of vehicle or MGCD0103. Each experimental group contained 3 animals. Tumor tissues were deposited in RNAlater (Qiagen, Missisauga Ontario) for total RNA extraction.

[2] = test system: peripheral white blood cells from healthy volunteers; assay: Semi-quantitative PCR of MT3 in peripheral white blood cells treated ex vivo; assay type: cell-based, human; conditions: 24 hr or 48 hr (FIG. 6)
Protocol: Peripheral white blood cells were isolated from healthy volunteers and treated ex vivo with MGCD0103 at indicated doses for 24 hr or 48 hr. RNA was extracted to monitor MT3 mRNA level by conventional semi-quantitative PCR (normalized to β-actin).
(§1) Whole blood from either consenting healthy volunteers or consenting patients was centrifuged at 2500 rpm for 10 minutes at ambient temperature in a Sorvall RT-7 centrifuge (Mandel Scientific Co., Guelph, Ontario). Plasma was removed and buffy coat was collected. Five volumes of Erythrocyte Lysis Buffer (EL) (Qiagen Canada Inc., Mississauga, Ontario) were added into buffy coat. Buffy coat was incubated on ice for 20 minutes before it was centrifuged at 400 g for 10 minutes at 4° C. Supernatant was removed and buffy coat was washed twice with EL buffer and re-centrifuged. Buffy coat was resuspended in RPMI media and cells were counted with trypan blue exclusion. To isolate PBMCs, buffy coat cells were centrifuged over Lymphoprep (Axis-Shield, 1114544), and any remaining erythrocytes in the sample were lysed by treatment with EL lysis buffer (Qiagen, 79217). The cell pellets are washed and then re-suspended in RPMI containing 10% FBS.
RNA was extracted from 8×10^6 cells using the Qiagen RNeasy Mini kit (cat#74106, Qiagen, Missisauga Ont.) following the manufacturer's instructions. […]

[3] = test system: peripheral white blood cells of patients; assay: Real time RT-PCR of gene transcription in patients' peripheral white cells in vivo; design: species or system human
Protocol: FIG. 8. Induction of MT3 (A) and AREG (B) transcription in vivo in patients with solid tumor who received treatment with MGCD0103 for one week (three doses per week). At day 8 (72 h after the third dose), peripheral white blood cells were isolated and RNA extracted and analyzed by qRT-PCR
FIG. 12. Induction of transcription of three tumor suppressor genes, BTG1, TNFSF9 and p21 in peripheral white cells from Patient A in vivo as determined by real time RT-PCR. Note that both BTG1 and TNFSF9 were identified in FIG. 11 using microarray expression analysis and their expression is confirmed in vivo by real time RT-PCR.
FIG. 13. Induction of transcription of three tumor suppressor genes, BTG1, TNFSF9 and p21 in peripheral white cells from a MDS patient with clinical response (Patient E) and a MDS patient without response (Patient F) in vivo as determined by real time RT-PCR. Blood samples were drawn 48 hr post the 2nd dose in cycle 1.
as §1
Quantitative PCR with SYBR Green I detection with Mastercycler® ep realplex (Eppendorf) was performed using LightCycler® 480 SYBR Green I Master (Roche Diagnostics). SYBR Green I assays were performed with 600 nM primers. All other reaction conditions were as described by the manufacturer. Amplification conditions were 5 minutes of initial denaturation at 95° C., followed by 40 cycles of each 15 seconds at 95° C., 15 seconds at 63.4° C., 20 seconds at 68° C., a melting curve from 60° C. to 95° C. was recorded. Quantification was performed using Pfaffl method, a relative quantification method in real-time PCR (Nucleic Acids Research 2001 29:2002-2007). Primers were synthesized by Invitrogen (Invitrogen-Canada, Burlington, Ont.).
Human patients with either solid tumors or leukemia/MDS diseases were enrolled in phase I studies with consensus forms. […]

Compound: Nc1ccccc1NC(=O)c1ccc(CNc2nccc(-c3cccnc3)n2)cc1 [MGCD0103]
- H4 acetylation in tumors [1]: detectable only after 6 h of treatment
- Induction of MT3 transcription ex vivo [2]: time-dependent and dose-dependent
- Induction of transcription of BTG1, TNFSF9 and p21 ([3]; MDS patient with clinical response (Patient E), 48 hr post 2nd dose in cycle 1 (FIG. 13)): Induction
- induction of MT3 transcription in vivo ([3]; patients with solid tumors, one week (three doses per week), day 8, qRT-PCR (FIG. 8A)): induction
- induction of AREG transcription in vivo ([3]; patients with solid tumors, one week (three doses per week), day 8, qRT-PCR (FIG. 8B)): induction
- Induction of transcription of BTG1, TNFSF9 and p21 ([3]; peripheral white cells, AML Patient A, real time RT-PCR (FIG. 12)): Induction
